According to US20080173808A1, “PROCESS AND DEVICE FOR RESPONSE NORMALIZED LIQUID CHROMATOGRAPHY NANOSPRAY IONIZATION MASS SPECTROMETRY (RNLC-NSI-MS)” (Schering Corporation, priority 2007, published 2008):

Assay: Nanoflow ESI (NanoMate-QTOF), RNLC-NSI-MS of drug and metabolites
Details: Vicriviroc and its metabolites, relative LC-MS response, M35 = 100
Protocol: For experiments described herein, high performance liquid chromatography (HPLC) separations of analytes were performed at room temperature using the first HPLC system referred to in FIG. 1 as “analytical HPLC”. […] The analytical HPLC column effluent was split (mixing tee 1 or T-1 in FIG. 1) so that 15-25% of the flow was directed to a second mixing tee (T-2 in FIG. 1) connected to the NSI source and 75-85% diverted to an auxiliary detector (e.g. a radioactivity detector (10-11) or a charged aerosol detector (12-13)). Separation of metabolites was achieved using the analytical HPLC system and programmed linear changes in mobile phase composition as shown in Table 1.
A second HPLC pump, referred to in FIG. 1 as the “Response Normalizing HPLC”, was used to deliver an exactly inverse gradient. Inverse gradient was achieved by switching the aqueous mobile phase to pump B and the organic mobile phase to pump A and using the same gradient program as the one used in the analytical HPLC system. The flow rate of the Response Normalizing HPLC system was maintained between 0.1 and 0.2 mL/min. […] The “Response Normalizing Flow” was introduced into the NSI source via a second mixing tee (T-2). HPLC flows from the analytical HPLC and from the “Response Normalizing HPLC” were combined in the second mixing tee (T-2). The combined flow was delivered to the NSI (NanoMate, API, or any other ion sources) via a union (referred in FIG. 1 as “bulkhead”). For NSI experiments, the combined flow is further split using a mixing tee. The split ratio within the NSI source was manipulated by adjusting the various diameters and lengths of fused silica capillary tubing used to deliver the flow to MS and the fraction collector/waste. Approximately 1-5% of the combined flow was delivered to the NSI source for MS analysis.

With `COC[C@@H](c1ccc(C(F)(F)F)cc1)N1CCN(C2(C)CCN(C(=O)c3c(C)ncnc3C)CC2)C[C@@H]1C` [Vicriviroc] the “Nanoflow ESI (NanoMate-QTOF) 0.15 mL/min Normalizing HPLC flow” value (0.15 mL/min normalizing flow) was 23.0, the “Nanoflow ESI (NanoMate-QTOF) 0.2 mL/min Normalizing HPLC flow” value (0.2 mL/min normalizing flow) was 14.3 and the “Nanoflow ESI (NanoMate-QTOF) Without Normalizing HPLC flow” value (no normalizing flow) was 50.0.
